“And” between values parts separate entries of the source, which are not always exact repeats. Equal values may be shown once.
Test system: Clostridium difficile clinical isolate growth, OD600, 24 h
Assay: growth modulation of Clostridium difficile isolate – OD600, 9-point, retest, dose response (AID 1224920);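 also: inhibitors lower culture turbidity so OD600 falls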

| Structure (SMILES) | IC50 |
| --- | --- |
| O=C(Nc1ccc(F)cc1)N1CCCCN2[C@@H](CO)[C@@H](c3ccc(-c4cccc(F)c4)cc3)[C@@H]2C1 | 13.2 µM |
| Cc1cccc(-c2ccc(C3[C@@H]4CN(Cc5ccccc5F)C[C@H]3N4)cc2)c1 (some centres undefined) | 6.22 µM |
| COc1ccc(-c2ccc(C3[C@@H]4CN(Cc5cccc(OC)c5)C[C@H]3N4)cc2)cc1 (some centres undefined) | 38.5 µM and 16.2 µM |
| COc1cccc(-c2ccc(C3[C@@H]4CN(S(=O)(=O)Cc5ccccc5)C[C@H]3N4)cc2)c1 (some centres undefined) | 52.6 µM |
| O=C(C1CCCCC1)N1CC[C@@H]2[C@H]1c1cc(C#Cc3ccc(F)cc3)ccc1N[C@@H]2CO | 45.2 µM |
| OC[C@@H]1[C@H](c2ccc(-c3ccccc3)cc2)[C@@H]2CN(CCC(F)(F)F)CCCCN12 | 56.6 µM |
| Cc1ccc(-c2ccc([C@@H]3[C@H](CO)N4CCCCN(S(=O)(=O)c5cccc(C)c5)C[C@@H]34)cc2)cc1 | 18.2 µM |
| OC[C@H]1[C@@H](c2ccc(-c3cccc(F)c3)cc2)[C@@H]2CN(CCC(F)(F)F)CCCCN12 | 53.8 µM |
| O=C(Nc1ccc(F)cc1)N1C[C@@H]2N[C@H](C1)C2c1ccc(/C=C/c2ccccc2)cc1 (some centres undefined) | 5.52 µM and 10 µM |
| Fc1cccc(CN2C[C@@H]3N[C@H](C2)C3c2ccc(-c3ccccc3)cc2)c1 (some centres undefined) | 8.38 µM and 10.4 µM |
| OC[C@H]1[C@H](c2ccc(C#CC3CCCC3)cc2)[C@H]2CN(CCC(F)(F)F)CCCCN21 | 16.8 µM |
| O=C(Nc1ccc(F)cc1)N1C[C@@H]2N[C@H](C1)C2c1ccc(-c2ccccc2F)cc1 (some centres undefined) | 36.7 µM and 57.5 µM |
| O=C(C[C@@H]1CC[C@H]2[C@@H](COC[C@@H](O)CN2C(=O)Nc2ccc(Cl)c(Cl)c2)O1)NC1CCC1 | 8 µM |
| Cc1ccc(-c2ccc([C@H]3[C@@H](CO)N4CCCCN(C(=O)c5ccc(F)cc5)C[C@H]34)cc2)cc1 | 30.7 µM |
| COc1ccccc1C#Cc1ccc2c(c1)[C@H]1[C@H](CCN1C(=O)c1ccncc1)[C@H](CO)N2 | 63.5 µM |
| COc1ccccc1CN1C[C@@H]2N[C@H](C1)C2c1ccc(-c2ccccc2OC)cc1 (some centres undefined) | 35.3 µM and 38.3 µM |
| OC[C@H]1[C@H](c2ccc(C#CC3CCCC3)cc2)[C@@H]2CN(CCC(F)(F)F)CCCCN12 | 35 µM |
| COc1ccccc1-c1ccc(C2[C@@H]3CN(S(=O)(=O)c4ccccc4C)C[C@H]2N3)cc1 (some centres undefined) | 28.1 µM |
| O=C(Nc1ccc(C(F)(F)F)cc1)N1[C@@H]2CNC[C@H]1C2c1ccc(-c2ccccc2)cc1 (some centres undefined) | 18.2 µM and 28.6 µM |
| O=C(Nc1ccccc1F)N1CCCCN2[C@@H](CO)[C@@H](c3ccc(/C=C/c4ccccc4)cc3)[C@@H]2C1 | 11.5 µM |
| O=C(Nc1ccc(F)cc1)N1[C@@H]2CNC[C@H]1C2c1ccc(-c2ccccc2)cc1 (some centres undefined) | 83.6 µM |

| Structure (SMILES) | IC50 |
| --- | --- |
| O=C(Nc1cccc(F)c1)N1CCCCN2[C@@H](CO)[C@@H](c3ccc(-c4ccccc4F)cc3)[C@@H]2C1 | 13.1 µM |
| OC[C@H]1Nc2ccc(-c3ccc(F)cc3)cc2[C@@H]2[C@H]1CCN2Cc1ccc(F)cc1 | 26.8 µM |
| Cc1cccc(S(=O)(=O)N2CCCCN3[C@H](CO)[C@H](c4ccc(C#CC5CC5)cc4)[C@H]3C2)c1 | 27.9 µM |
| Cc1ccc(-c2ccc(C3[C@@H]4CN(Cc5cccc(F)c5)C[C@H]3N4)cc2)cc1 (some centres undefined) | 2.8 µM and 12.6 µM |
| O=C(Nc1ccccc1)N1CCCCN2[C@H](CO)[C@H](c3ccc(C#Cc4ccccc4)cc3)[C@H]2C1 | 9.4 µM |
| Cc1cccc(S(=O)(=O)N2C[C@@H]3N[C@H](C2)C3c2ccc(-c3ccccc3F)cc2)c1 (some centres undefined) | 11.3 µM |
| O=C(c1cccc(F)c1)N1CC[C@H]2[C@H](CO)Nc3ccc(-c4cccc(F)c4)cc3[C@H]21 | 124 µM |
| Cc1ccc(-c2ccc(C3[C@H]4CNC[C@@H]3N4C(=O)Nc3ccc(F)cc3)cc2)cc1 (some centres undefined) | 64.4 µM |
| COc1cc(CN2C[C@@H]3N[C@H](C2)C3c2ccc(/C=C/c3ccccc3)cc2)cc(OC)c1 (some centres undefined) | 9.5 µM |
| Cc1ccc(-c2ccc([C@H]3[C@@H](CO)N4CCCCN(C(=O)Nc5ccccc5)C[C@H]34)cc2)cc1 | 37.7 µM |
| COc1cccc(S(=O)(=O)N2[C@@H]3CNC[C@H]2C3c2ccc(/C=C/c3ccccc3)cc2)c1 (some centres undefined) | 23.9 µM |
| Cc1ccccc1-c1ccc(C2[C@@H]3CN(C(=O)Nc4cccc(F)c4)C[C@H]2N3)cc1 (some centres undefined) | 39 µM |
| COc1cccc(-c2ccc(C3[C@@H]4CN(C(=O)c5ccc(F)cc5)C[C@H]3N4)cc2)c1 (some centres undefined) | 65.4 µM |
| O=C(Nc1ccc(C(F)(F)F)cc1)N1C[C@@H]2N[C@H](C1)C2c1ccc(/C=C/c2ccccc2)cc1 (some centres undefined) | 1.98 µM and 3.86 µM |
| Fc1ccc(CN2[C@@H]3CNC[C@H]2C3c2ccc(-c3ccccc3)cc2)cc1 (some centres undefined) | 28.6 µM |
| COc1ccc(C#Cc2ccc([C@H]3[C@H](CO)N4CCCCN(C(=O)Nc5cccc(F)c5)C[C@@H]34)cc2)cc1 | 20.9 µM |
| C/C=C/c1ccc(C2[C@H]3CNC[C@@H]2N3Cc2cc(-c3ccccc3)on2)cc1 (some centres undefined) | 32.7 µM |
| COc1ccccc1NC(=O)N1C[C@@H]2N[C@H](C1)C2c1ccc(/C=C/c2ccccc2)cc1 (some centres undefined) | 10.7 µM |
| O=C(Nc1cccc(F)c1)N1CCCCN2[C@@H](CO)[C@@H](c3ccc(C#CC4CC4)cc3)[C@@H]2C1 | 35.4 µM |
| COc1ccc2c3c(n(C)c2c1)[C@@H](CO)NCC31CN(Cc2ccc(Cl)cc2)C1 | 50 µM |
| Cc1ccc(-c2ccc(C3[C@H]4CNC[C@@H]3N4S(=O)(=O)c3ccccc3C)cc2)cc1 (some centres undefined) | 27.6 µM |

| Structure (SMILES) | IC50 |
| --- | --- |
| O=C(NC[C@@H]1N[C@@H](CO)[C@H]1c1ccc(C2=CCCCC2)cc1)c1cccc(F)c1 | 11.2 µM |
| COc1ccccc1-c1ccc(C2[C@@H]3CN(Cc4cccc(F)c4)C[C@H]2N3)cc1 (some centres undefined) | 6.88 µM |
| Cc1ccccc1-c1ccc([C@H]2[C@H](CO)N3CCCCN(C(=O)Nc4cccc(F)c4)C[C@@H]23)cc1 | 29.1 µM |
| COc1cc(CN2C[C@@H]3N[C@H](C2)C3c2ccc(-c3cccc(OC)c3)cc2)cc(OC)c1 (some centres undefined) | 13 µM and 14 µM |
| O=C(Nc1ccccc1F)N1C[C@@H]2N[C@H](C1)C2c1ccc(/C=C/c2ccccc2)cc1 (some centres undefined) | 12.5 µM |
| COc1cccc(CN2C[C@@H]3N[C@H](C2)C3c2ccc(-c3ccccc3F)cc2)c1 (some centres undefined) | 9.26 µM and 6.5 µM |
| O=C(C[C@@H]1CC[C@@H]2[C@H](COC[C@H](O)CN2C(=O)Nc2cc(Cl)cc(Cl)c2)O1)N1CCOCC1 | 20.4 µM |
| O=C(Nc1ccccc1)N1CCCCN2[C@H](CO)[C@@H](c3ccc(C#Cc4ccccc4)cc3)[C@H]2C1 | 33.5 µM |
| O=S(=O)(c1ccccc1)N1C[C@@H]2N[C@H](C1)C2c1ccc(/C=C/c2ccccc2)cc1 (some centres undefined) | 8.5 µM |
| O=C(C[C@@H]1CC[C@@H]2[C@H](COC[C@@H](O)CN2C(=O)Nc2ccc(C(F)(F)F)cc2)O1)NC1Cc2ccccc2C1 | 6.53 µM |
| O=C(c1cccc(F)c1)N1CCCCN2[C@H](CO)[C@H](c3ccc(/C=C/c4ccccc4)cc3)[C@H]2C1 | 140 µM |
| Cc1cccc(-c2ccc([C@H]3[C@@H](CO)N4CCCCN(CCC(F)(F)F)C[C@@H]34)cc2)c1 | 50.5 µM |
| O=C(C[C@@H]1CC[C@H]2[C@@H](COC[C@@H](O)CN2C(=O)Nc2ccc(C(F)(F)F)cc2)O1)NCC1CCCCC1 | 7.5 µM |
| COc1cccc(-c2ccc(C3[C@H]4CNC[C@@H]3N4Cc3ccc4c(c3)OCO4)cc2)c1 (some centres undefined) | 30.1 µM |
| Cc1ccc(-c2ccc([C@@H]3[C@@H](CO)N4CCCCN(S(=O)(=O)c5cccc(C)c5)C[C@H]34)cc2)cc1 | 10.7 µM |
| COc1ccccc1S(=O)(=O)N1[C@@H]2CNC[C@H]1C2c1ccc(/C=C/c2ccccc2)cc1 (some centres undefined) | 63.2 µM |
| COc1cccc(CN2C[C@@H]3N[C@H](C2)C3c2ccc(-c3ccccc3OC)cc2)c1 (some centres undefined) | 34.1 µM |
| COc1ccccc1C#Cc1ccc2c(c1)[C@H]1[C@H](CCN1C(=O)c1ccc(F)cc1)[C@H](CO)N2 | 0.759 µM |
| O=C(Nc1ccc(C(F)(F)F)cc1)N1C[C@@H]2N[C@H](C1)C2c1ccc(-c2cccnc2)cc1 (some centres undefined) | 15.2 µM |
| Cc1ccc(-c2ccc([C@H]3[C@@H](CO)N4CCCCN(S(=O)(=O)c5cccc(C)c5)C[C@H]34)cc2)cc1 | 13.7 µM |
| Cc1cccc(-c2ccc(C3[C@H]4CNC[C@@H]3N4C(=O)Nc3ccccc3Cl)cc2)c1 (some centres undefined) | 33.2 µM |

| Structure (SMILES) | IC50 |
| --- | --- |
| O=C(C[C@H]1CC[C@@H]2[C@H](COC[C@@H](O)CN2C(=O)Nc2ccc(Cl)c(Cl)c2)O1)NC1CCC1 | 27.5 µM |
| COc1ccc(C#Cc2ccc([C@H]3[C@@H](CO)N4CCCCN(C(=O)Nc5cccc(F)c5)C[C@H]34)cc2)cc1 | 4.44 µM |
| CCCC#Cc1ccc([C@H]2[C@@H](CO)N3CCCCN(S(=O)(=O)Cc4ccccc4)C[C@H]23)cc1 | 34.2 µM |
| O=C(C[C@@H]1CC[C@H]2[C@@H](COC[C@@H](O)CN2C(=O)Nc2cc(Cl)cc(Cl)c2)O1)N1CCOCC1 | 17.3 µM |
| COc1ccc(C#Cc2ccc([C@@H]3[C@@H](CO)N4CCCCN(C(=O)Nc5cccc(F)c5)C[C@H]34)cc2)cc1 | 14.4 µM |
| O=C(NC[C@@H]1N[C@@H](CO)[C@H]1c1ccc(C2=CCCCC2)cc1)c1ccccc1 | 65.8 µM |
| OC[C@@H]1[C@H](c2ccc(C#CC3CCCC3)cc2)[C@H]2CN(CCC(F)(F)F)CCCCN12 | 26.6 µM |
| Cc1ccccc1-c1ccc(C2[C@@H]3CN(C(=O)c4ccc(F)cc4)C[C@H]2N3)cc1 (some centres undefined) | 64.6 µM |
| CC(C)CC#Cc1ccc([C@H]2[C@H](CO)N3CCCCN(C(=O)Nc4ccccc4)C[C@@H]23)cc1 | 11.1 µM |
| Cc1cccc(-c2ccc(C3[C@@H]4CN(C(=O)Nc5ccc(C(F)(F)F)cc5)C[C@H]3N4)cc2)c1 (some centres undefined) | 2.73 µM and 2.52 µM |
| O=C(C[C@H]1CC[C@H]2[C@@H](COC[C@@H](O)CN2C(=O)Nc2ccc(C(F)(F)F)cc2)O1)NCC1CCCCC1 | 6.01 µM |
| O=C(C[C@H]1CC[C@H]2[C@@H](COC[C@@H](O)CN2C(=O)Nc2cc(Cl)cc(Cl)c2)O1)N1CCOCC1 | 29.1 µM |
| O=C(Nc1ccc(F)cc1)N1CCCCN2[C@H](CO)[C@@H](c3ccc(-c4cccc(F)c4)cc3)[C@H]2C1 | 92.2 µM |
| Fc1cccc(CN2[C@@H]3CNC[C@H]2C3c2ccc(-c3cccc(F)c3)cc2)c1 (some centres undefined) | 28 µM |
| C(=C\c1ccc(C2[C@H]3CNC[C@@H]2N3Cc2nccs2)cc1)/c1ccccc1 (some centres undefined) | 60.4 µM |
| COc1cccc(S(=O)(=O)N2C[C@@H]3N[C@H](C2)C3c2ccc(/C=C/c3ccccc3)cc2)c1 (some centres undefined) | 12.7 µM |
| O=C(C[C@H]1CC[C@H]2[C@@H](COC[C@@H](O)CN2C(=O)Nc2ccc(Cl)c(Cl)c2)O1)NC1CCC1 | 19.4 µM |
| COc1ccccc1CN1C[C@@H]2N[C@H](C1)C2c1ccc(-c2ccc(C#N)cc2)cc1 (some centres undefined) | 45.1 µM |
| C/C=C/c1ccc(C2[C@@H]3CN(Cc4ccc5c(c4)OCO5)C[C@H]2N3)cc1 (some centres undefined) | 46.3 µM and 55.8 µM |
| O=C(Nc1ccccc1)N1CCCCN2[C@@H](CO)[C@@H](c3ccc(C#Cc4ccccc4)cc3)[C@@H]2C1 | 19 µM |
| O=C(Nc1ccccc1)N1C[C@@H]2N[C@H](C1)C2c1ccc(-c2ccccc2)cc1 (some centres undefined) | 59.7 µM |

Source: PubChem BioAssay AID1224920 (Broad Institute, 2016)
